Laboratory results published in ChEMBL document CHEMBL1141751, “Latifolians A and B, novel JNK3 kinase inhibitors from the Papua New Guinean plant Gnetum latifolium” (J Nat Prod, 2005).

Biological target: Mitogen-activated protein kinase 10 (Homo sapiens, UniProt P53779)
Assay: Inhibition of JNK3-induced transfer of [gamma33P]ATP to biotinylated ATF2 by scintillation proximity assay

Mitogen-activated protein kinase 10, sequence (P53779 whole entry): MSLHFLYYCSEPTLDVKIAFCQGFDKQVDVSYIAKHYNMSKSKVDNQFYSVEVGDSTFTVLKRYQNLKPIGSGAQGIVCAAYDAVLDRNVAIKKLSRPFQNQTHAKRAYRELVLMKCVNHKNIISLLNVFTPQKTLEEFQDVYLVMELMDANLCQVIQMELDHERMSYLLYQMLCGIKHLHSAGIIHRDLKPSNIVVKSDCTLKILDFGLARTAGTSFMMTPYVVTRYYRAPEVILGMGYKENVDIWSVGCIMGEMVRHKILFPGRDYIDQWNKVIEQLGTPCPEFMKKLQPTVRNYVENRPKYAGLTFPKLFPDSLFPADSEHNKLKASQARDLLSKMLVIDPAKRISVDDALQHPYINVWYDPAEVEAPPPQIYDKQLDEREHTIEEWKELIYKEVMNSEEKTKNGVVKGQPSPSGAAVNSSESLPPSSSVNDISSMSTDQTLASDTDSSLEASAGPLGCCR

| Compound | IC50 [µM] |
| --- | --- |
| Oc1cc2c(cc1O)[C@H]1Cc3cc(O)c(O)cc3[N@+]13CCc1cc(O)c(O)cc1[C@@H]3C2 [LATIFOLIAN A] | 13 |
| COc1cc2c(cc1O)C[C@@H]1c3cc(O)c(O)cc3C[C@H]3c4cc(O)c(O)cc4CC[N@@+]213 [LATIFOLIAN B] | 10 |
